Laboratory results reported in the supplement of paper PMC13380429.

What was measured:
Conditions in all cases: 72 h
[1] = tested on: Caco-2; test: cell viability relative to DMSO; higher = less toxic
[2] = tested on: Calu-3; test: as above
[3] = tested on: HepG2; test: as above
[4] = tested on: U2OS; test: as above
[5] = tested on: Caco-2; test: relative viability EC50 (midpoint between 100% and the lowest measured viability); higher = less toxic
[6] = tested on: Calu-3; test: as above
[7] = tested on: HepG2; test: as above
[8] = tested on: U2OS; test: as above
[9] = tested on: Caco-2; test: drug sensitivity score (DSS) for viability; higher = more toxic; extreme values may be limits of the assay
[10] = tested on: Calu-3; test: as above
[11] = tested on: HepG2; test: as above
[12] = tested on: U2OS; test: as above
[13] = tested on: Vero E6; test: cell viability relative to DMSO; higher = less toxic
[14] = tested on: Vero E6; test: relative viability EC50 (midpoint between 100% and the lowest measured viability); higher = less toxic
[15] = tested on: Vero E6; test: drug sensitivity score (DSS) for viability; higher = more toxic; extreme values may be limits of the assay

Row | SMILES | cell viability ([1]; 1 nM) [%] | cell viability ([1]; 10 nM) [%] | cell viability ([1]; 100 nM) [%] | cell viability ([1]; 1000 nM) [%] | cell viability ([1]; 10000 nM) [%] | cell viability ([2]; 1 nM) [%] | cell viability ([2]; 10 nM) [%] | cell viability ([2]; 100 nM) [%] | cell viability ([2]; 1000 nM) [%] | cell viability ([2]; 10000 nM) [%] | cell viability ([3]; 1 nM) [%] | cell viability ([3]; 10 nM) [%] | cell viability ([3]; 100 nM) [%] | cell viability ([3]; 1000 nM) [%] | cell viability ([3]; 10000 nM) [%] | cell viability ([4]; 1 nM) [%] | cell viability ([4]; 10 nM) [%] | cell viability ([4]; 100 nM) [%] | cell viability ([4]; 1000 nM) [%] | cell viability ([4]; 10000 nM) [%] | relative viability EC50 [5] [µM] | relative viability EC50 [6] [µM] | relative viability EC50 [7] [µM] | relative viability EC50 [8] [µM] | drug sensitivity score [9] | drug sensitivity score [10] | drug sensitivity score [11] | drug sensitivity score [12] | cell viability ([13]; 1 nM) [%] | cell viability ([13]; 10 nM) [%] | cell viability ([13]; 100 nM) [%] | cell viability ([13]; 1000 nM) [%] | cell viability ([13]; 10000 nM) [%] | relative viability EC50 [14] [µM] | drug sensitivity score [15]
1 | O=c1ccc2c(OCCCCOc3ccccc3)c3ccoc3cc2o1 [AS-77] | 97 | 99 | 96.6 | 105 | 89.7 | 97.5 | 92.5 | 95.8 | 102 | 98.4 | 106 | 99.4 | 98.3 | 94.4 | 90 | 98.1 | 102 | 101 | 104 | 100 | > 10 | > 10 | > 10 | > 10 | 0 | 0 | 0 | 0 |  |  |  |  |  |  | 
2 | CCn1c(=O)/c(=C2\Sc3ccccc3N2C)s/c1=C\c1cccc[n+]1CC [MKT-077] | 92.5 | 93.7 | 100 | 95 | 44 | 96.4 | 99.9 | 101 | 94.8 | 20.8 | 104 | 92.8 | 109 | 100 | 49 | 97.8 | 98.4 | 96.2 | 94.3 | 51.4 | 2.43 | 2.64 | 3.23 |  | 3.8 | 5.2 | 2.6 | 3.5 | 100 | 97.1 | 95.3 | 90.8 | 81 | > 10 | 0.9
3 | COc1ccc(CCC(=O)c2c(O)cc(O[C@@H]3O[C@H](CO)[C@@H](O)[C@H](O)[C@H]3O[C@@H]3O[C@@H](C)[C@H](O)[C@@H](O)[C@H]3O)cc2O)cc1O [Neohesperidin dihydrochalcone (Nhdc)] | 102 | 104 | 95.2 | 94.2 | 106 | 108 | 92.8 | 102 | 99.6 | 109 | 101 | 110 | 108 | 107 | 92.1 |  |  |  |  |  | > 10 | > 10 | > 10 |  | 0 | 0 | 0 |  | 103 | 104 | 99.9 | 104 | 99.7 | > 10 | 0
4 | N[C@H]1CC[C@H](N[C@@H]2C[C@H]2c2ccccc2)CC1 [ORY-1001] | 93.7 | 99.5 | 93.2 | 100 | 100 | 93.2 | 105 | 94.1 | 99.3 | 95.3 |  |  |  |  |  | 96.3 | 98.7 | 97.4 | 101 | 98.4 | > 10 | > 10 |  | > 10 | 0 | 0 |  | 0 | 97.7 | 103 | 99 | 96.3 | 103 | > 10 | 0
5 | O=C(Nc1ccccc1)[C@]12C[C@H]1/C(=N\O)c1ccccc1O2 [PHCCC] | 104 | 99 | 93.4 | 107 | 94.5 | 102 | 102 | 90.9 | 96.4 | 93 |  |  |  |  |  | 97.4 | 99.9 | 95.9 | 101 | 104 | > 10 | > 10 |  | > 10 | 0 | 0 |  | 0 | 107 | 91.5 | 102 | 92.8 | 103 | > 10 | 0
6 | O=C(Nc1ccc(N2CCC(C(=O)N3CCOCC3)CC2)cc1)c1cnc(Oc2ccccc2)nc1 [TFC-007] | 99.6 | 101 | 110 | 97.9 | 110 | 96 | 87.6 | 100 | 100 | 103 | 106 | 110 | 101 | 91.8 | 91.4 |  |  |  |  |  | > 10 | > 10 | > 10 |  | 0 | 0 | 0 |  | 90.1 | 101 | 90 | 95 | 110 | > 10 | 0
